From PubChem BioAssay (NCI) come the findings set out here.

Test systems include NCI-H226 lung; SF-539 CNS; MCF7 breast; OVCAR-3 ovarian; NCI-H522 lung; RPMI-8226 leukemia; MDA-MB-435; UACC-257 melanoma; M14 melanoma; COLO 205 colon; UO-31 renal; SF-295 CNS; SK-MEL-28 melanoma; CAKI-1 renal; SR leukemia; IGROV1 ovarian; LOX IMVI melanoma; SNB-75 CNS; SK-MEL-2 melanoma; 786-0 renal.
Common to all, as to test: NCI tumour cell line growth inhibition, 48 h

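Five compound concentrations were applied to cells in 96-well plates for 48 hours; endpoints were derived by simple linear interpolation of the resulting dose-response curve. TGI marks complete inhibition of growth.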

`CC1=CC=C2c3ccccc3C=CN2C(=O)C1`: the TGI with NCI-H226 lung, with SF-539 CNS, in the test with MCF7 breast, with OVCAR-3 ovarian, with NCI-H522 lung and in the test on RPMI-8226 leukemia was greater than 100 µM each time. Also, the TGI in the test with MDA-MB-435, in the test with UACC-257 melanoma, with M14 melanoma, in the test on COLO 205 colon, in the test with UO-31 renal and with SF-295 CNS was greater than 100 µM each time. The TGI in the test on SK-MEL-28 melanoma, with CAKI-1 renal, with SR leukemia, with IGROV1 ovarian, in the test on LOX IMVI melanoma and in the test on SNB-75 CNS was greater than 100 µM each time. Also, the TGI in the test with SK-MEL-2 melanoma and with 786-0 renal was greater than 100 µM throughout.
For the compound `Cc1nn2c(=O)c([N+](=O)[O-])c(/C=C/c3ccco3)nc2s1`, the TGI in the test with NCI-H226 lung, in the test with SF-539 CNS, with MCF7 breast, in the test with OVCAR-3 ovarian, with NCI-H522 lung and in the test with RPMI-8226 leukemia was greater than 100 µM throughout. For the same compound, the TGI is 44.7 µM with MDA-MB-435; greater than 100 µM with UACC-257 melanoma; greater than 100 µM in the test on M14 melanoma; greater than 100 µM in the test on COLO 205 colon; greater than 100 µM in the test on UO-31 renal; greater than 100 µM in the test on SF-295 CNS. Further, the TGI with SK-MEL-28 melanoma was greater than 100 µM; in the test on CAKI-1 renal, greater than 100 µM; with SR leukemia, 79.2 µM; in the test with IGROV1 ovarian, greater than 100 µM; with LOX IMVI melanoma it was 50.4 µM; with SNB-75 CNS, greater than 100 µM. In addition, the TGI with SK-MEL-2 melanoma and in the test with 786-0 renal was greater than 100 µM in each case.
With `COc1cccc(C(=O)Nc2c3ccccc3nc3ccccc23)c1OC`, the TGI with NCI-H226 lung is greater than 100 µM; in the test on SF-539 CNS it was greater than 100 µM; in the test with MCF7 breast, greater than 100 µM; in the test with OVCAR-3 ovarian, greater than 100 µM; with NCI-H522 lung it was 89.9 µM; with RPMI-8226 leukemia it was greater than 100 µM. The TGI is greater than 100 µM in the test on MDA-MB-435; greater than 100 µM with UACC-257 melanoma; greater than 100 µM in the test on M14 melanoma; greater than 100 µM in the test on COLO 205 colon; 14.7 µM with UO-31 renal; greater than 100 µM in the test on SF-295 CNS. The TGI with SK-MEL-28 melanoma was greater than 100 µM; with CAKI-1 renal it was greater than 100 µM; in the test with SR leukemia, greater than 100 µM; in the test on IGROV1 ovarian, greater than 100 µM; in the test on LOX IMVI melanoma, greater than 100 µM; with SNB-75 CNS, 71 µM. For the same compound, the TGI in the test with SK-MEL-2 melanoma and in the test on 786-0 renal was greater than 100 µM each time.
For `Cc1cc(=O)oc2cc(SC(=O)N(C)C)ccc12`, the TGI in the test with NCI-H226 lung, in the test with SF-539 CNS, in the test with MCF7 breast, in the test on OVCAR-3 ovarian, in the test with NCI-H522 lung and in the test on RPMI-8226 leukemia was greater than 100 µM throughout. Also, the TGI in the test on MDA-MB-435, in the test on UACC-257 melanoma, with M14 melanoma, with COLO 205 colon, with UO-31 renal and in the test with SF-295 CNS was greater than 100 µM throughout. In addition, the TGI in the test with SK-MEL-28 melanoma, with CAKI-1 renal, with SR leukemia, in the test with IGROV1 ovarian, in the test with LOX IMVI melanoma and with SNB-75 CNS was greater than 100 µM in each case. For the same compound, the TGI with SK-MEL-2 melanoma and in the test on 786-0 renal was greater than 100 µM each time.
`COc1ccc2oc(=Nc3ccccc3)c(C(N)=O)cc2c1`: the TGI in the test on NCI-H226 lung, with SF-539 CNS, in the test with MCF7 breast, in the test on OVCAR-3 ovarian, with NCI-H522 lung and in the test with RPMI-8226 leukemia was greater than 100 µM in each case. The TGI in the test on MDA-MB-435 was greater than 24.4 µM; in the test with UACC-257 melanoma it was greater than 100 µM; in the test on M14 melanoma it was greater than 100 µM; in the test with COLO 205 colon, greater than 100 µM; in the test on UO-31 renal, greater than 55.6 µM; with SF-295 CNS, greater than 100 µM. Besides, the TGI with SK-MEL-28 melanoma, in the test on CAKI-1 renal, in the test on SR leukemia, with IGROV1 ovarian, in the test with LOX IMVI melanoma and in the test with SNB-75 CNS was greater than 100 µM each time. In addition, the TGI in the test on SK-MEL-2 melanoma and in the test on 786-0 renal was greater than 100 µM throughout.
Consider `CC(C)(C)OC(=O)[C@@H]1CCC(=S)N1Cc1ccccc1`, for which the TGI with NCI-H226 lung, with SF-539 CNS, with MCF7 breast, in the test with OVCAR-3 ovarian, with NCI-H522 lung and with RPMI-8226 leukemia was greater than 100 µM in each case. Also, the TGI with MDA-MB-435, in the test with UACC-257 melanoma, in the test on M14 melanoma, in the test with COLO 205 colon, with UO-31 renal and in the test on SF-295 CNS was greater than 100 µM throughout. Further, the TGI in the test with SK-MEL-28 melanoma, in the test with CAKI-1 renal, in the test with SR leukemia, in the test on IGROV1 ovarian, in the test with LOX IMVI melanoma and in the test on SNB-75 CNS was greater than 100 µM each time. In addition, the TGI in the test on SK-MEL-2 melanoma and with 786-0 renal was greater than 100 µM each time.
For the compound `C/C(=C/c1ccccc1)CN(C(=O)/C=C\Sc1ccccc1)C(C)(C)C`, the TGI in the test on NCI-H226 lung is greater than 100 µM; with SF-539 CNS it was greater than 100 µM; in the test on MCF7 breast it was greater than 100 µM; with OVCAR-3 ovarian, greater than 100 µM; in the test on NCI-H522 lung, greater than 46.4 µM; in the test on RPMI-8226 leukemia, greater than 100 µM. Also, the TGI in the test with MDA-MB-435, in the test with UACC-257 melanoma, in the test with M14 melanoma, in the test with COLO 205 colon, in the test on UO-31 renal and in the test on SF-295 CNS was greater than 100 µM each time. Besides, the TGI in the test with SK-MEL-28 melanoma, in the test with CAKI-1 renal, with SR leukemia, in the test on IGROV1 ovarian, in the test with LOX IMVI melanoma and with SNB-75 CNS was greater than 100 µM in each case. The TGI in the test with SK-MEL-2 melanoma and in the test on 786-0 renal was greater than 100 µM each time.
